“And” between values parts separate entries of the source, which are not always exact repeats. Identical values can stand only once.
Target: EGFR (murine) (UniProt P00533)
Details: nih3t3/c7

Sequence of EGFR (murine) (P00533 whole entry, looked up): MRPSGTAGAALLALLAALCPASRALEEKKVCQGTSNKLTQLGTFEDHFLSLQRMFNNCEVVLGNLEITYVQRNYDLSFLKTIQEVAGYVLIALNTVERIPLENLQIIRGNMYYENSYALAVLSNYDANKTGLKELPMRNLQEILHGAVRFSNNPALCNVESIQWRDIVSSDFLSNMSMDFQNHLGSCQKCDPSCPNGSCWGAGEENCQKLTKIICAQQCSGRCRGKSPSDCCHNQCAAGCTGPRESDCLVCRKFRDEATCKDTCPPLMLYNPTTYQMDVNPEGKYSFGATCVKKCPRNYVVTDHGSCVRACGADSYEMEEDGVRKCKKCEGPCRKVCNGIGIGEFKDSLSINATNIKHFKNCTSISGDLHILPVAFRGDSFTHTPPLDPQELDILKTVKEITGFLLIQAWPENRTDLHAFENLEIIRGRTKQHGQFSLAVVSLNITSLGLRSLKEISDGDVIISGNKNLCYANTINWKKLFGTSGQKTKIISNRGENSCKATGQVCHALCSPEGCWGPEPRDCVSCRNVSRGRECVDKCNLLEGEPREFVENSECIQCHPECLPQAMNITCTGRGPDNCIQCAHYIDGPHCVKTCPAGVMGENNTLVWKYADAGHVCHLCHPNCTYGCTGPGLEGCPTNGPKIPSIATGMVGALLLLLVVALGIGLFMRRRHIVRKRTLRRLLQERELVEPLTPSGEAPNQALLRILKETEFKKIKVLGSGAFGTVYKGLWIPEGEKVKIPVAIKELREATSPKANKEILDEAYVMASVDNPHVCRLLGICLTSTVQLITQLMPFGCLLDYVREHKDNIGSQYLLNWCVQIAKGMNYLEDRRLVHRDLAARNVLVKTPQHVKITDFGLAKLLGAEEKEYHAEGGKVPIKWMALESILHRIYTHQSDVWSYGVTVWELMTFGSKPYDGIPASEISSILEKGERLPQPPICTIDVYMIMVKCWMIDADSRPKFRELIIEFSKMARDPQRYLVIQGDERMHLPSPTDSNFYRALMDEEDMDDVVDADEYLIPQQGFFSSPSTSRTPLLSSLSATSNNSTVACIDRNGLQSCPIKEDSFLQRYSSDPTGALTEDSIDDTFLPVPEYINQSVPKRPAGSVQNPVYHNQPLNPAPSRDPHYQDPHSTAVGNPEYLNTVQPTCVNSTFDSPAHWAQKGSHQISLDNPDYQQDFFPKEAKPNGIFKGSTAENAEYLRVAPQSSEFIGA

| IC50 | Structure (SMILES) |
| --- | --- |
| 0.86 µM | Cc1ccc2ncnc(Nc3cccc(C(F)(F)F)c3)c2c1 |
| 0.16 µM and 0.2 µM | Clc1cccc(Nc2ncnc3ccccc23)c1 |
| 12.5 µM | Cc1cc2nc(CSCCCSCc3nc4cc(C)c(C)cc4nc3-c3ccccc3)c(-c3ccccc3)nc2cc1C |
| > 100 µM | CC(=O)C1=C(c2ccccc2)[NH+]([O-])c2ccccc2[NH+]1[O-] (stereo not drawn) |
| > 50 µM | N#CC(C#N)=CNNc1cccc(Cl)c1 |
| > 100 µM | CC(C)(C)c1cc(/C=C(\C#N)S(=O)(=O)/C(C#N)=C/c2cc(C(C)(C)C)c(O)c(C(C)(C)C)c2)cc(C(C)(C)C)c1O |
| 31.5 µM | N#C/C(=C\c1cc(O)c(O)c(Br)c1)C(=O)NCCCNC(=O)/C(C#N)=C/c1cc(O)c(O)c(Br)c1 |
| 0.06 µM | Cc1ccc2ncnc(Nc3cccc(Cl)c3)c2c1 |
| 25 µM | CC(C)(C)c1cc(/C=C(\C#N)c2c(C#N)c(N)nn2-c2ccccc2)cc(C(C)(C)C)c1O |
| > 50 µM | CC(=O)ON=C(Cl)C1=C[NH+]([O-])c2cc(Cl)ccc2[NH+]1[O-] (stereo not drawn) |
| 43 µM | COC(=O)c1ccc(NCc2cc(O)ccc2O)cc1 |

Target: EGFR (human) (UniProt P00533)
Sequence (P00533 whole entry, looked up): as above
Details: a431

| IC50 | Structure (SMILES) |
| --- | --- |
| 20 µM | Clc1cccc(Nc2ncnc3ccccc23)c1 |
| 10 µM and 20 µM | Cc1ccc2ncnc(Nc3cccc(Cl)c3)c2c1 |

— the Kinase Knowledgebase extract (Sharma et al. 2016)
